# Source: ChEMBL document CHEMBL1156402, “Two new furanoditerpenes from Saururus chinenesis and their effects on the activation of peroxisome proliferator-activated receptor gamma” (J Nat Prod, 2002)
# Assays:
# [1] = molecular target: T1, Peroxisome proliferator-activated receptor gamma (Homo sapiens, UniProt P37231); assay: Agonist activity at human PPARgamma expressed in mouse NIH/3T3 cells assessed as receptor activation after 16 hrs by luciferase based reporter gene assay; assay type: functional, cell-based, NIH3T3
# T1 sequence (P37231 whole entry): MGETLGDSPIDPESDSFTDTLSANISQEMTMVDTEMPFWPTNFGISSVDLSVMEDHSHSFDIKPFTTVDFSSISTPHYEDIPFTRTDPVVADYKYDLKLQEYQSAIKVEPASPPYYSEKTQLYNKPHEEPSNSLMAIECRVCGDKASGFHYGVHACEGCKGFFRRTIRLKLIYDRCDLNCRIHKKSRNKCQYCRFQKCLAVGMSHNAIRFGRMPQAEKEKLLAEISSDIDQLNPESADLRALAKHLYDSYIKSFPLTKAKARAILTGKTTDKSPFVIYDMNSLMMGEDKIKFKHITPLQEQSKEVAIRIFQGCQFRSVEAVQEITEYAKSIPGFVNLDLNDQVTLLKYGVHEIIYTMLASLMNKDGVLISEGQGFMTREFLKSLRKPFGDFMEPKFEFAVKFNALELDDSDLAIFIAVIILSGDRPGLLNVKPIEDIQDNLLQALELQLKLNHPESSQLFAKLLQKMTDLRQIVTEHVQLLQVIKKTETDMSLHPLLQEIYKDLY
# [2] = molecular target: T2, Peroxisome proliferator-activated receptor gamma (Homo sapiens) (UniProt P37231); assay: Agonist activity at human PPARgamma expressed in mouse NIH/3T3 cells assessed as receptor activation at 100 uM after 16 hrs by luciferase based reporter gene assay relative to control; assay type: functional, cell-based; settings: NIH3T3
# T2 sequence (whole entry): T1 sequence (P37231 whole entry)
EC50 [1] [µM],fold change (FC) [2],SMILES
16.7,13.5,C/C(=C/CC/C(C)=C/CC/C(C)=C/Cc1occc1C)C(=O)O [SAURUFURAN A]
–,15,CC1(COc2ccc(CC3SC(=O)NC3=O)cc2)CCCCC1 (centres undefined)
> 100,–,C/C(=C\CC/C(C)=C/Cc1occc1C)CC/C=C(\C)C(=O)O [SAURUFURAN B]
